According to ChEMBL document CHEMBL3045377, “An aphid repellent glycoside from Solanum laxum” (2000):

Experiments:
Assay type in all cases: functional
Schizaphis graminum [1] = assay: Toxicity against Schizaphis graminum fed on artificial diet containing compound assessed as relative survival at 50 uM after 24 hr by non-choice assay (reference value: 100 +/-0%)
Schizaphis graminum [2] = assay: Feeding deterrence activity against Schizaphis graminum fed on artificial diet containing compound assessed as relative survival at 500 uM after 24 hr by non-choice assay (reference value: 100 +/-0%)
Schizaphis graminum [3] = assay: Feeding deterrence activity against Schizaphis graminum fed on artificial diet containing compound assessed as relative survival at 250 uM after 24 hr by non-choice assay (reference value: 100 +/-0%)
Schizaphis graminum [4] = assay: Feeding deterrence activity against Schizaphis graminum fed on artificial diet containing compound assessed as relative survival at 100 uM after 24 hr by non-choice assay (reference value: 100 +/-0%)
Schizaphis graminum [5] = assay: Feeding deterrence activity against Schizaphis graminum fed on artificial diet containing compound assessed as relative survival at 50 uM after 24 hr by non-choice assay (reference value: 100 +/-0%)
Schizaphis graminum [6] = assay: Feeding deterrence activity against Schizaphis graminum fed on artificial diet containing compound assessed as relative survival at 500 uM after 12 hr by non-choice assay (reference value: 100 +/-0%)
Schizaphis graminum [7] = assay: Feeding deterrence activity against Schizaphis graminum fed on artificial diet containing compound assessed as relative survival at 250 uM after 12 hr by non-choice assay (reference value: 100 +/-0%)
Schizaphis graminum [8] = assay: Feeding deterrence activity against Schizaphis graminum fed on artificial diet containing compound assessed as relative survival at 100 uM after 12 hr by non-choice assay (reference value: 100 +/-0%)
Schizaphis graminum [9] = assay: Feeding deterrence activity against Schizaphis graminum fed on artificial diet containing compound assessed as relative survival at 50 uM after 12 hr by non-choice assay (reference value: 100 +/-0%)
Schizaphis graminum [10] = assay: Toxicity against Schizaphis graminum fed on artificial diet containing compound assessed as relative survival at 500 uM after 24 hr by non-choice assay (reference value: 100 +/-0%)
Schizaphis graminum [11] = assay: Toxicity against Schizaphis graminum fed on artificial diet containing compound assessed as relative survival at 250 uM after 24 hr by non-choice assay (reference value: 100 +/-0%)
Schizaphis graminum [12] = assay: Toxicity against Schizaphis graminum fed on artificial diet containing compound assessed as relative survival at 100 uM after 24 hr by non-choice assay (reference value: 100 +/-0%)

SMILES: C[C@H]1CC[C@@]2(OC1)O[C@H]1[C@H](O)[C@H]3[C@@H]4CC=C5C[C@@H](O[C@@H]6O[C@H](CO)[C@H](O[C@@H]7O[C@H](CO)[C@@H](O)[C@H](O)[C@H]7O[C@@H]7O[C@H](CO)[C@@H](O)[C@H](O)[C@H]7O)[C@H](O)[C@H]6O[C@@H]6O[C@@H](C)[C@H](O)[C@@H](O)[C@H]6O)CC[C@]5(C)[C@H]4CC[C@]3(C)[C@H]1[C@@H]2C [Luciamin]
- survival at 50 µM (Schizaphis graminum [1]): 47%
- survival at 500 µM (Schizaphis graminum [2]): 76%
- survival at 250 µM (Schizaphis graminum [3]): 72%
- survival at 100 µM (Schizaphis graminum [4]): 70%
- survival at 50 µM (Schizaphis graminum [5]): 64%
- survival at 500 µM (Schizaphis graminum [6]): 70%
- survival at 250 µM (Schizaphis graminum [7]): 85%
- survival at 100 µM (Schizaphis graminum [8]): 80%
- survival at 50 µM (Schizaphis graminum [9]): 93%
- survival at 500 µM (Schizaphis graminum [10]): 40%
- survival at 250 µM (Schizaphis graminum [11]): 48%
- survival at 100 µM (Schizaphis graminum [12]): 49%
